Results as given in patent US20170028005A1, “NATURAL SWEETENER” (NATGOOD IP, LLC, priority 2014, published 2017).
Values belong to the compound of their own block, whether it stands above or below them.

What was measured:
[1] = test system: blood glucose response; experiment: A Glycemic Response Test; format: in vivo; conditions: 30 grams in water after fast; blood glucose every 15 minutes for 90 minutes
Experimental: Under an Institutional Review Board approved, controlled clinical trial, subjects undergo a pre-test fast for at least 20 hours and then consume 30 grams of glucose, or an equal amount of sweetener in water. Blood glucose measurements are then made every 15 minutes for 90 minutes and the blood glucose response is recorded. A sweetener is considered to pass the test when then blood glucose response is less than 5% of glucose.

[2] = test system: blood glucose response; experiment: A Repression Test; format: in vivo; set-up: key: PASS: pass the repression test when then blood glucose response is much lower than expected for the combination of; conditions: product (e.g. cupcake) with other nutritive carbohydrates
Experimental: Under controlled study scenario subjects fast, then consume a product (e.g. a cupcake) that contains other nutritive carbohydrates and the glycemic response is assessed by established methods. The glycemic response to the nutritive carbohydrates is compared to the glycemic response to the nutritive carbohydrates in the presence of the sweetener or sugar.

[3] = The Caramelization Test; format: physicochemical; conditions: 1 cup sweetener with 1/2 cup water until it browns
Source text: 1 cup of caramelized sugar or 1 cup of sweetener is mixed with ½ cup of water and swirled to mix until it browns. A sweetener is considered to pass the test and be enough like sugar when it browns within 25% of the time when the sugar browns.

[4] = test system: blood glucose level; experiment: Glycemic index (GI) of NSC formulations (Example 2); format: in vivo, human
Experimental: Glycemic index can be measured by any suitable methodology. For example, to determine a food's GI value, measured portions of the food containing 50 grams of available carbohydrate (or 25 grams of available carbohydrate for foods that contain lower amounts of carbohydrate) may be fed to 10 healthy people after an overnight fast. Finger-prick blood samples can be taken at 15-30 minute intervals over the next two hours. These blood samples can be used to construct a blood sugar response curve for the two hour period. The incremental area under the curve (iAUC) is calculated to reflect the total rise in blood glucose levels after eating the test food. The GI value is calculated by dividing the iAUC for the test food by the iAUC for the reference food (same amount of glucose) and multiplying by 100. The average of the GI ratings from all ten subjects is designated as the GI for that food. […] The effect on the GI response for different NSC formulations was assessed. Four formulations, designated F1-F4, containing tagatose, monkfruit, stevia extract, erythritol, xanthan gum and either maltitol or lactitol were prepared as indicated in Table 1. The glycemic index for each formulation was calculated based on the glycemic index for the individual components taking into account the weight percent of the component in the formulation. Monkfruit, xanthan gum, and stevia extract have a glycemic index of 0, erythritol has a glycemic index of 1 while tagatose has a glycemic index of 3. Maltitol has a glycemic index of 35 while lactitol has a glycemic index of 5. Fifteen subjects were evaluated and the GI calculated as described previously herein.

[5] = Acute randomized controlled trial: adverse events symptom score; format: in vivo, human
Experimental: An acute randomized controlled trial was carried out to investigate the effects of an NSC of the type disclosed herein on postprandial insulin, glucose and fructose responses.
Subjects (N=15) men and non-pregnant, non-lactating women, 18-75 years of age each with a BMI of 18-40 kg/m^2 inclusive and normal glycemia and (i) fasting serum glucose <126 mg/dl (<7.0 mmol/l) (or in whole blood ≦6.1 mmol/L); (ii) blood pressure <130/85; (iii) no prescription drugs within 1 month of the first study visit after screening except for the birth control pill, lipid lowering medications or small doses of anxiolytics/sedatives to assist sleeping; and (iv) no major illness or surgery requiring hospitalization within 3 months of the first study visit after screening.
The test foods consisted of 2 isovolumetric beverages: 30 g sucrose control and 30 g of sweetener blend dissolved in 500 ml water. The sucrose test meal acted as the control. Test meals were administered in a randomized order.
Adverse events reported following ingestion of the meals containing either an NSC of the type disclosed herein or sucrose included bloating, belching, nausea, diarrhea and flatulence. Each issue was scored and record for the time period indicated in Table 5 which provides the symptom score (mm) for: Bloating, Belching, Nausea, Diarrhea and Flatulence at 0 min, 120 min, before Dinner (D) and before breakfast (B).

[6] = test system: blood glucose level; conditions: values used for the expected GI; cited from earlier work

Compound: OC[C@H]1O[C@@](CO)(O[C@H]2O[C@H](CO)[C@@H](O)[C@H](O)[C@H]2O)[C@@H](O)[C@@H]1O [Sugar, sucrose]
Glycemic test [1]: FAIL
Repression test [2]: FAIL
Caramelization test [3]: PASS (pass the test and be enough like sugar when it browns within 25% of the time when the sugar browns)
Expected GI ([4]; calculated from GI of individual components and their weight percent): 65
Observed GI ([4]; fifteen subjects): 65
Glycemic Index ([4]; sweetener ingredient of the cake mix, Table 2): 65 for sugar
Belching symptom score ([5]; 0 min): 0.60 mm
Bloating symptom score ([5]; 0 min): 7.93 mm
Diarrhea symptom score ([5]; 0 min): 0.27 mm
Flatulence symptom score ([5]; 0 min): 1.47 mm
Nausea symptom score ([5]; 0 min): 0.33 mm
Belching symptom score ([5]; 120 min): 0.40 mm
Bloating symptom score ([5]; 120 min): 4.67 mm
Diarrhea symptom score ([5]; 120 min): 0.80 mm
Flatulence symptom score ([5]; 120 min): 1.40 mm
Nausea symptom score ([5]; 120 min): 1.87 mm
Belching symptom score ([5]; before Dinner (D)): 1.79 mm
Bloating symptom score ([5]; before Dinner (D)): 5.43 mm
Diarrhea symptom score ([5]; before Dinner (D)): 6.93 mm
Flatulence symptom score ([5]; before Dinner (D)): 8.93 mm
Nausea symptom score ([5]; before Dinner (D)): 2.57 mm
Belching symptom score ([5]; before breakfast (B)): 0.57 mm
Bloating symptom score ([5]; before breakfast (B)): 5.71 mm
Diarrhea symptom score ([5]; before breakfast (B)): 5.79 mm
Flatulence symptom score ([5]; before breakfast (B)): 7.50 mm
Nausea symptom score ([5]; before breakfast (B)): 0.57 mm

Compound: O=C(CO)C(O)C(O)C(O)CO (stereo not shown) [Allulose]
Glycemic test [1]: PASS (pass the test when then blood glucose response is less than 5% of glucose)
Repression test [2]: PASS

Caramelization test [3]: FAIL-
Compound: O=C(CO)[C@@H](O)[C@@H](O)[C@H](O)CO [Tagatose, (3S,4S,5R)-1,3,4,5,6-pentahydroxy-hexan-2-one]
Glycemic test [1]: PASS (pass the test when then blood glucose response is less than 5% of glucose)
glycemic index of individual component [6]: 3
Repression test [2]: FAIL

Compound: OC[C@@H](O)[C@@H](O[C@H]1O[C@H](CO)[C@@H](O)[C@H](O)[C@H]1O)[C@H](O)[C@@H](O)CO [Maltitol, maltitol]
glycemic index of individual component [6]: 35

Compound: OC[C@@H](O)[C@@H](O)CO [Erythritol, erythritol]
Glycemic test [1]: PASS (pass the test when then blood glucose response is less than 5% of glucose)
glycemic index of individual component [6]: 1
Repression test [2]: FAIL

Compound: OC[C@@H](O)[C@@H](O[C@@H]1O[C@H](CO)[C@H](O)[C@H](O)[C@H]1O)[C@H](O)[C@@H](O)CO [lactitol]
glycemic index of individual component [6]: 5
